This note sets out measurements from paper PMC6348444, “New Water-Soluble Copper(II) Complexes with Morpholine–Thiosemicarbazone Hybrids: Insights into the Anticancer and Antibacterial Mode of Action” (Journal of Medicinal Chemistry, 2018).

This assay concerns A2780 cells. Description: Annexin V/PI apoptosis assay. Type of assay: cell-based, human. The note with it: 24 h. An excerpt:
To elucidate if observed cytotoxicity of new compounds described in this study was a result of apoptosis induction, we conducted Annexin V/PI apoptosis assay. In brief, fluorochrome-labeled Annexin V reagent is used for detection of membrane phosphatidylserine (PS), which translocates to the cellular surface from the inner side of plasma membrane in the event of early apoptosis. Simultaneously, PI is used for detection of later stages of apoptosis or necrosis, which are characterized by loss of membrane integrity and accumulation of PI inside the cells. […] Results are illustrated in Figure 9. Upon incubation of A2780 cells with increasing concentrations of HL^2 and 2, the dose-dependent increase of apoptotic cells was observed.
A2780 cells were seeded into Cellstar 12-well plates (Greiner Bio-One) at a density of 20 × 10^4 cells/well (1 mL per well). The cells were allowed to resume exponential growth for 24 h and subsequently they were exposed to HL^2 and 2 at different concentrations for 24 h. After the supernatant solution was collected in 1.5 mL microtubes, the cells were washed with 100 μL of trypsin, which was combined with the supernatant. Subsequently, cells were trypsinized with 200 μL of trypsin for 5 min at 37 °C, 5% CO2, washed with 200 μL of PBS, and combined with the supernatant. The cells were centrifuged at 2.5 × 10^3 rpm for 5 min and the pellets were washed once with PBS and resuspended in 500 μL of Annexin V binding buffer and stained with Annexin V-FITC and PI reagents. The fluorescence was immediately analyzed by flow cytometry. The resulting dot blots were acquired from 10 000 events and quantified using Flowjo software (Flowjo LLC, Ashland, OR, USA).

As for `CN(C)C(=NN=Cc1ccc(CN2CCOCC2)cn1)[S][Cu][Cl]` [complex 2, [Cu(L^2)Cl]], the apoptotic cells reads like this: (A2780, 2IC50 concentration) 22.5 ± 5.3%; (A2780, 6IC50 concentration) 24.4 ± 7.8%.
